Earlier results as cited in patent US20170368079A1, “ANTI-INFLAMMATORY AND ANTIDIABETIC AGENTS” (priority 2016, published 2017).
Where two headings read alike, the source gives them in different places.

Key:
[1] = test system: patients with type 2 diabetes
[2] = test system: glucocorticoid metabolism; details: mice; pattern differs between liver and subcutaneous adipose tissue
[3] = test system: glucocorticoid metabolism; details: humans; pattern differs between liver and subcutaneous adipose tissue
[4] = compared with placebo, in contrast to aspirin
[5] = test system: platelet aggregation; details: unlike aspirin
[6] = test system: prostaglandin synthesis; details: in vivo; compared with aspirin and indomethacin

For O=C(Oc1ccccc1C(=O)O)c1ccccc1O [salsalate, 2-(2-hydroxybenzoyl)oxybenzoic acid], the C-reactive protein [1] is given as “lowers”, the HbA1c levels [1] is given as “lowers” and the adiponectin concentrations [1] is given as “increase”. The blood glucose [1] was “lowers”, the circulating insulin [1] was “increase” and the free fatty acid [1] was “lowers”. For the same compound, the glucose utilization [1] was “improve”, the triglycerides [1] was “lowers” and the glucocorticoid metabolism [2] was “alters glucocorticoid metabolism”. The glucocorticoid metabolism [3] was “alters glucocorticoid metabolism”, the “fecal gastrointestinal blood loss” value [4] was “no greater fecal gastrointestinal blood loss than placebo” and the “inhibition of platelet aggregation” value [5] was “does not inhibit platelet aggregation”. For the same compound, the anti-inflammatory activity [6] was “equivalent to aspirin and indomethacin”.
